Here are results for eight molecules from PMC12261321, “Inhibitors of the Bacterioferritin Ferredoxin Complex Dysregulate Iron Homeostasis and Kill and Biofilm-Embedded Cells” (ACS Infectious Diseases, 2025).

Series [1] is described as follows: Determination of compound aqueous solubility in M63 media. The settings on record: in M63 media at 35 °C. The format is physicochemical. As for the experimental part: Determination of Compound Aqueous Solubility. Compound stocks (100 mM in DMSO) were prepared from […]
powder and then further diluted with DMSO to prepare 20 mM working solutions, which were diluted as needed […]
in DMSO. 15 µL o f the DMSO solution was then d iluted to a final volume o f 1.0 mL in M63 media. Six solutions […]
were prepared for each compound, each with a distinct concentration and 1.5% DMSO (v/v). 700 µL of each […]
compound solution was transferred to a polystyrene 48-well plate (VWR), followed by acquisition of UV-vis […]
spectra (300 to 700 nm) with the aid of an Epoch 2 microplate reader (B i o Te k ). […]
Following the acquisition of UV-vis spectra, each of the wells in the plate was inspected under a […]
microscope for evidence of precipitation. Evidence of precipitation at any given concentration was determined by observing a shift in the baseline of the UV-vis spectra relative to the blank (M63 media) and/or evidence of visual precipitation with the aid of a micros cope. […]

The test system of another series is P. aeruginosa PAO1. Nature of the series: Half maximal inhibitory concentration (IC50), planktonic growth (CFU/mL). The format is cell-based. The settings on record: M63 media, 18 h. The protocol: Measurement of Half Maximal Inhibitory Concentration (IC50). IC50 values were determined as reported earlier13 with some modifications. Compound stock solutions in DMSO (100 mM and 10 mM) were prepared from powd er. To prep are the cell susp ensions utilized in the measu rements, starter cultures o f P. aeru ginosa wer e diluted to an optical density at 600 nm (OD600) = 0.005 in fresh LB media (5 mL) and then cultured at 37°C and 220 rpm for 4 h prior to diluting to an OD600 = 0.0001 in M63. A small volume of compound stock solution w as further diluted in DMSO to 30 µL and then diluted in M63 cell suspension to a final volume of 2.0 mL. The resultant solution was placed in a well of a 96-well plate and then serially 2-fold diluted in M63 cell suspension to produce 6 distinct com pound concent rations, each with 1.5% DMSO. Th e plate was co ver ed and incubated for 18 h at 35 °C in a Synergy H1 plate reader (Biotek). The resultant cell cultures were serially diluted in PBS and then plated on PI Agar plates (PIA; BD biosciences) for counting viable cells (CFU/mL). The % growth was calculated from the ratio CFU/mL(t reat ed )/CFU/mL(untreated control). To calculate the IC50 values, the % growth was plotted as a function of compound concentration expressed as log[compound] ( µM), and fitted to equation S1 describing the sigmoid- shaped response pattern, 14 where b is the slope factor, max is the upper asymptote (plateau), and min is the lower asymptote. IC 50 values are the average and standard deviation from three independent experiments , each conducted with thr ee techni cal replicates.

For the next series, the system named is A. baumannii 5075. Nature of the series: MIC, broth microdilution in M63 media. In kind it is cell-based. The protocol: (§1) Measurement of Minimum Inhibitory Concentrations (MIC). The MIC of compounds and select ed antibiotics against three strains of A. baumannii (5075, ATCC 17988, and ATCC 19606) were determined via the broth microdilution method according to Clinical and Laboratory Standard Instit ute (CLSI) guidelines,15 but culturing […]
(§2) To establish a 2-fold dilution series of compound, 985 μ L of diluted cells was mixed with 15 μ L of compound […]
(§3) dissolved in DMSO, such that the resultant solution had the highest concentration of compound or antibiotic tested and 1.5% DMSO. To carry out the serial dilution from the highest compound concentration, a 150 μ L solution of higher concentration compound or antibiotic was mixed with 150 μ L of cell suspension containing 1.5% DMSO in the wells of a 96 well plate.
(§4) Th e 96 well plate was in cubated for 20 hat 35 °C with continuous orbital shaking (205 cpm) in an Epoch2 microplate reader (BioTek), monitoring the growth by […]
(§5) following the OD600. […]
(§6) FFFFFF = MMMMMMAA iiii ccllccbbiiiicccciilliiMMMMMMAA+ MMMMMMBB iiii ccllccbbiiiicccciilliiMMMMMMBB S2 Time Kill Assays. Time-kill assays were performed with A. baumannii 507 5 by the broth macro- dilution method in M63- medium containing 1.5% DMSO. An overnight culture was diluted to approximately 5 x10^5 CFU/mL in fresh M63 media. The test solutions were prepared by adding compound (KM-5- 35, or KM-5- 25) dissolved in DMSO to 5 mL of diluted cell suspension to yield a solution of the desired compound concentration and 1.5% DMSO, or by the addition of antibiotic dissolved in water and a small volume of DMSO to produce the desired
On the technique in general: In broth dilution the organism is exposed to a series of concentrations in liquid medium.

In a further series the test system is A. baumannii ATCC 17978. Nature of the series: MIC, broth microdilution in M63 media. In kind it is cell-based. The protocol:
as §1, §2, §3, §4, §5, §6

In another series the test system is A. baumannii ATCC 19606. Nature of the series: MIC, broth microdilution in M63 media. In kind it is cell-based. As for the experimental part:
as §1, §2, §3, §4, §5, §6

The next series has as its target T1, recombinant Pa BfrB (Pseudomonas aeruginosa, UniProt Q9HY79).
T1 construct: made in house; host or cells: E. coli
Nature of the series: Dissociation constant (Kd), fluorescence quenching titration of apo Pa BfrB. In kind it is binding, P. aeruginosa. The protocol:
Measurement of Dissociation Constant (Kd) R ecombinant Pa BfrB was expressed in E. coli and purified as previously reported.19 Apo-BfrB (devoid of heme) was utilized for the measurements to prevent heme-driven fluorescence quenching. A 0.5 mL solution contai ning 0.01 µM apo Pa-BfrB in PBS (pH = 7.4) containing0.5% DMSO was plac ed into a 1 cm quartz cuvette wh ere it was titrated with aliq uots of compound dissolved in a 50% (v/v) PBS/DMSO solution. The fluorescence quenching brought by the addition of each aliquot was monitored with the aid of an Agilent Cary Fluorometer , with excitation at 280 nm, emission at 320- 470 nm, 10 x10 nm slit width, and an average of 5 scans per spectrum. Th e binding assay included at least 8 aliquots spanning from ~ 0.1 […]
A control titration was carried out by titrati ng compound into PBS buffer. The Kd was cal culated by fitting the data to equation S4, w here Fb is the fraction bound and Fmax is the fraction bound at saturating compound concentration.
FFbb = FFmmmmmm ? [ccccmmccccccmmcc ]? (S4) […]

Structures are written as SMILES. ≈ marks a conversion by molar mass, not a printed value. A value given as a limit tells only on which side of the number the result lay.

T1 sequence (Q9HY79 whole entry): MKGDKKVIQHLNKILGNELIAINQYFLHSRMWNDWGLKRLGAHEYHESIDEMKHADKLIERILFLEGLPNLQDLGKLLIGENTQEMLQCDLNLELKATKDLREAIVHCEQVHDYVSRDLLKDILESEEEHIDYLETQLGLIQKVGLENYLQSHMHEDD

`O=C1NC(=O)c2c(NCc3ccccc3O)cccc21` [Analog 11, 4-((2-Hydroxybenzyl)amino)isoindoline-1,3-dione]: the solubility (usually the dissolved amount per volume that the medium holds) at 4 h in series [1] (M63 media with 1.5% DMSO, 35 °C, aqueous buffer, kinetic from dmso stock) amounted to 200 µM (≈ 53.7 µg/mL). Besides, the IC50 (as a rule, the concentration that inhibits the measured activity by half) with P. aeruginosa PAO1 (Pseudomonas aeruginosa, PAO1, planktonic cells) was found to be 178 ± 14 µM. The MIC (usually the lowest concentration that inhibits growth of the organism) against A. baumannii 5075 (Acinetobacter baumannii, 5075, 20 h) came to 80 µM (≈ 21.5 µg/mL); with A. baumannii ATCC 17978 (Acinetobacter baumannii, ATCC17978, 20 h), 120 µM (≈ 32.2 µg/mL); with A. baumannii ATCC 19606 (Acinetobacter baumannii, ATCC19606, 20 h), 80 µM (≈ 21.5 µg/mL).
As for `O=C1NC(=O)c2c(NCc3ccc(Br)cc3O)cccc21` [EB-5-61], the solubility at 4 h in series [1] was determined as 60 µM (≈ 20.8 µg/mL). For the same molecule, at recombinant Pa BfrB, the Kd – broadly, a measure of binding affinity in units of concentration – turned out to be 13 ± 3 µM. Further, in the series on P. aeruginosa PAO1 (planktonic cells), the IC50 is 24 ± 2 µM. In addition, the MIC in the series on A. baumannii 5075 (20 h), in the series on A. baumannii ATCC 17978 (20 h) and against A. baumannii ATCC 19606 (20 h) was 50 µM (≈ 17.4 µg/mL) throughout.
The molecule `Cc1ccc(CNc2cccc3c2C(=O)NC3=O)c(O)c1` [EB-5-69] showed a solubility at 4 h in series [1] of 80 µM (≈ 22.6 µg/mL). Also, the Kd at recombinant Pa BfrB amounted to 45 ± 6 µM. Besides, the “IC50, P. aeruginosa PAO1” value in the series on P. aeruginosa PAO1 (planktonic cells) was “Not active”. The minimum inhibitory concentration (MIC) in the series with A. baumannii 5075 (20 h), in the series with A. baumannii ATCC 17978 (20 h) and in the series on A. baumannii ATCC 19606 (20 h) was 80 µM (≈ 22.6 µg/mL) each time.
`Cc1cccc(CNc2cccc3c2C(=O)NC3=O)c1O` [EB-5-70]: the solubility at 4 h in series [1] is listed as 100 µM (≈ 28.2 µg/mL). The dissociation constant (Kd) at recombinant Pa BfrB came out at 17 ± 2 µM. Further, the “IC50, P. aeruginosa PAO1” value in the series on P. aeruginosa PAO1 (planktonic cells) is on record as “Not active”. The MIC in the series with A. baumannii 5075 (20 h), in the series with A. baumannii ATCC 17978 (20 h) and with A. baumannii ATCC 19606 (20 h) was 100 µM (≈ 28.2 µg/mL) in each case.
In the case of `O=C1NC(=O)c2c(NCc3c(O)cccc3F)cccc21` [EB-5-71], the solubility at 4 h in series [1] was 150 µM (≈ 42.9 µg/mL). Also, the Kd at recombinant Pa BfrB was found to be 56 ± 10 µM. For the same molecule, the IC50 with P. aeruginosa PAO1 (planktonic cells) came out at 80 ± 10 µM. The MIC against A. baumannii 5075 (20 h), against A. baumannii ATCC 17978 (20 h) and against A. baumannii ATCC 19606 (20 h) was 75 µM (≈ 21.5 µg/mL) throughout.
The molecule `O=C1NC(=O)c2c(NCc3c(O)cccc3Br)cccc21` [EB-5-72] had a solubility at 4 h in series [1] of 60 µM (≈ 20.8 µg/mL). The Kd at recombinant Pa BfrB worked out at 15 ± 3 µM. Further, the IC50 with P. aeruginosa PAO1 (planktonic cells) turned out to be 32 ± 5 µM. For the same molecule, the MIC in the series with A. baumannii 5075 (20 h), in the series with A. baumannii ATCC 17978 (20 h) and in the series on A. baumannii ATCC 19606 (20 h) was above 60 µM in each case.
In turn, `O=C1NC(=O)c2c(NCc3cccc(Br)c3O)cccc21` [EB-5-73] returned a solubility at 4 h in series [1] of 40 µM (≈ 13.9 µg/mL). Further, the Kd on recombinant Pa BfrB was 7 ± 2 µM. Besides, the “IC50, P. aeruginosa PAO1” value with P. aeruginosa PAO1 (planktonic cells) is recorded as “Not active”. The MIC was above 40 µM against A. baumannii 5075 (20 h), 40 µM (≈ 13.9 µg/mL) against A. baumannii ATCC 17978 (20 h) and above 40 µM in the series with A. baumannii ATCC 19606 (20 h).
For the molecule `O=C1NC(=O)c2c(NCc3cccc(F)c3O)cccc21` [EB-5-80], the solubility at 4 h in series [1] was determined as 100 µM (≈ 28.6 µg/mL). The Kd on recombinant Pa BfrB worked out at 49 ± 7 µM. Moreover, the “IC50, P. aeruginosa PAO1” value in the series with P. aeruginosa PAO1 (planktonic cells) was “Not active”. For the same molecule, the MIC against A. baumannii 5075 (20 h), against A. baumannii ATCC 17978 (20 h) and in the series with A. baumannii ATCC 19606 (20 h) was above 100 µM each time.
